Experimental data from patent US9907737B2, “Composition comprising ferulic acid ethyl ester and aryl alkanol” (L'AIR LIQUIDE, SOCIETE ANONYME POUR L'ETUDE ET …, priority 2013, dated 2018).
Marks after values point to notes of the source that are not given here.

Legend:
[1] = system: A. brasiliensis ATCC: 16404; assay: Bacterial count reduction test (method 1), A. brasiliensis; assay type: cell-based, Aspergillus brasiliensis
Experimental: (§1) Method 1: Bacterial Count Reduction Test
(§2) The aim of this bacterial count reduction test is to determine suitable preservatives and reaction times for samples injected in the laboratory.
(§3) Staphylococcus aureus, Escherichia coli or Pseudomonas aeruginosa, Candida albicans, Aspergillus brasiliensis
A 7 to 14 days old Aspergillus brasiliensis culture on SA agar (25° C.±1° C.) is washed with 5 ml physiological NaCl, filtered by a glass funnel with glass wool and filled with physiological NaCl to 100 ml. The titre of the Aspergillus brasiliensis suspension is about 10^7 CFU/ml.
(§4) The titres of the respectively produced test organism suspensions are determined by means of a dilution series in physiological NaCl and recorded.
(§5) The samples are displaced with different concentrations of suitable preservatives. For each test bacterium a dilution series is required. The samples are injected individually with the respective test organism suspension and stirred well:
(§6) 25 g samples=0.1 ml bacterial suspension
(§7) 50 g samples=0.2 ml bacterial suspension.
(§8) After the indicated reaction times the samples are firstly stirred homogenously with a sterile glass rod and then spread onto CSA or SA agar. The bacteria samples are spread onto CSA and incubated for 48 hours at 37° C. The mould and yeast samples are spread onto SA agar and incubated for 48 hours at 37° C. (Candida albicans) and at 25° C. (Aspergillus brasiliensis).

[2] = system: P. aeruginosa ATCC: 9027; assay: Bacterial count reduction test (method 1), P. aeruginosa; assay type: cell-based, Pseudomonas aeruginosa; conditions: o/w-Lotion, initial bacterial count 1.2 × 10^9
Experimental: as §1, §2, §3, §4, §5, §6, §7, §8

[3] = system: E. coli ATCC: 11229; assay: Bacterial count reduction test (method 1), E. coli; assay type: cell-based, Escherichia coli; conditions: o/w cream, initial bacterial count 1.3 × 10^9
Experimental: as §1, §2, §3
(§9) From a 24-hour CS-angular agar culture (I subculture) of Staphylococcus aureus/Escherichia coli 24-hour CSL-cultures (II subculture) are created. The incubation is carried out at 37° C. The titer of the bacterial suspension is about 10^9 CFU/ml.
as §4, §5, §6, §7, §8

[4] = system: C. albicans ATCC: 10231; assay: Bacterial count reduction test (method 1), C. albicans; assay type: cell-based, Candida albicans
Experimental: as §1, §2, §3
A 4 day old Candida albicans culture on SA-agar (II subculture) is washed with 5 ml physiological NaCl and adjusted according to a barium sulphate standard (cf. DVG Guidelines). The titer of the Candida albicans suspension is 10^8 CFU/ml.
as §4, §5, §6, §7, §8

[5] = system: S. aureus ATCC: 6538; assay: Bacterial count reduction test (method 1), S. aureus; assay type: cell-based, Staphylococcus aureus
Experimental: as §1, §2, §3, §9, §4, §5, §6, §7, §8

[6] = Antimicrobial effect (preliminary work, general statements); conditions: preliminary work / general statement
[7] = Water solubility (statement); assay type: physicochemical
[8] = o/w cream, initial bacterial count 1.5 × 10^7
[9] = o/w-Lotion, initial bacterial count 7.7 × 10^7
[10] = o/w cream, initial bacterial count 4.1 × 10^8
[11] = o/w-Lotion, initial bacterial count 5.4 × 10^8
[12] = o/w cream, initial bacterial count 1 × 10^9
[13] = o/w-Lotion, initial bacterial count 2.2 × 10^9

In the case of `CCCCC(CC)COC(=O)/C=C/c1ccc(O)c(OC)c1` (centres unmarked) [0.1% ferulic acid-2-ethylhexylester, ferulic acid (2-ethyl hexyl) ester], the “Growth of A. brasiliensis ATCC: 16404 after 24 hours” value (shortened to “Growth … 16404 after 24 hours”) [1, 8] is reported as “R (Surface covered About 10^6)”, the “Growth of A. brasiliensis ATCC: 16404 after 72 hours” value (“Growth … 16404 after 72 hours” for short) [1, 8] is reported as “++++ (Massive growth About 10^5)” and the “Growth of A. brasiliensis ATCC: 16404 after 168 hours” value (“Growth … 16404 after 168 hours” below) [1, 8] is reported as “++++ (Massive growth About 10^5)”. For the same molecule, the “Growth of A. brasiliensis ATCC: 16404 after 336 hours” value (“Growth … 16404 after 336 hours” below) [1, 8] was “++++ (Massive growth About 10^5)”, the “Growth … 16404 after 24 hours” value [1, 9] was “++++ (Massive growth About 10^5)” and the “Growth … 16404 after 72 hours” value [1, 9] was “++++ (Massive growth About 10^5)”. For the same molecule, the “Growth … 16404 after 168 hours” value [1, 9] was “++++ (Massive growth About 10^5)”, the “Growth … 16404 after 336 hours” value [1, 9] was “++++ (Massive growth About 10^5)” and the “Growth of P. aeruginosa ATCC: 9027 after 24 hours” value [2] was “+++ (Heavy growth About 10^4)”. For the same molecule, the “Growth of P. aeruginosa ATCC: 9027 after 72 hours” value [2] was “++++ (Massive growth About 10^5)”, the “Growth of P. aeruginosa ATCC: 9027 after 168 hours” value [2] was “++++ (Massive growth About 10^5)” and the “Growth of P. aeruginosa ATCC: 9027 after 336 hours” value [2] was “++++ (Massive growth About 10^5)”. The “Growth of E. coli ATCC: 11229 after 24 hours” value (“Growth … 11229 after 24 hours” below) [3] was “R (Surface covered About 10^6)”, the “Growth of E. coli ATCC: 11229 after 72 hours” value [3] was “++++ (Massive growth About 10^5)” and the “Growth of E. coli ATCC: 11229 after 168 hours” value [3] was “R (Surface covered About 10^6)”. For the same molecule, the “Growth of E. coli ATCC: 11229 after 336 hours” value [3] was “R (Surface covered About 10^6)”, the “Growth of C. albicans ATCC: 10231 after 24 hours” value (shortened to “Growth … 10231 after 24 hours”) [4, 10] was “++++ (Massive growth About 10^5)” and the “Growth of C. albicans ATCC: 10231 after 72 hours” value (“Growth … 10231 after 72 hours” for short) [4, 10] was “++++ (Massive growth About 10^5)”. The “Growth of C. albicans ATCC: 10231 after 168 hours” value (“Growth … 10231 after 168 hours” below) [4, 10] was “++++ (Massive growth About 10^5)”, the “Growth of C. albicans ATCC: 10231 after 336 hours” value (“Growth … 10231 after 336 hours” below) [4, 10] was “++++ (Massive growth About 10^5)” and the “Growth … 10231 after 24 hours” value [4, 11] was “R (Surface covered About 10^6)”. The “Growth … 10231 after 72 hours” value [4, 11] was “R (Surface covered About 10^6)”, the “Growth … 10231 after 168 hours” value [4, 11] was “++++ (Massive growth About 10^5)” and the “Growth … 10231 after 336 hours” value [4, 11] was “++++ (Massive growth About 10^5)”. For the same molecule, the “Growth of S. aureus ATCC: 6538 after 24 hours” value (“Growth … 6538 after 24 hours” below) [5, 12] was “++++ (Massive growth About 10^5)”, the “Growth of S. aureus ATCC: 6538 after 72 hours” value (from here on “Growth … 6538 after 72 hours”) [5, 12] was “++++ (Massive growth About 10^5)” and the “Growth of S. aureus ATCC: 6538 after 168 hours” value (shortened to “Growth … 6538 after 168 hours”) [5, 12] was “++++ (Massive growth About 10^5)”. The “Growth of S. aureus ATCC: 6538 after 336 hours” value (“Growth … 6538 after 336 hours” for short) [5, 12] was “+++ (Heavy growth About 10^4)”, the “Growth … 6538 after 24 hours” value [5, 13] was “R (Surface covered About 10^6)” and the “Growth … 6538 after 72 hours” value [5, 13] was “++++ (Massive growth About 10^5)”. For the same molecule, the “Growth … 6538 after 168 hours” value [5, 13] was “++++ (Massive growth About 10^5)” and the “Growth … 6538 after 336 hours” value [5, 13] was “++++ (Massive growth About 10^5)”.

In the case of `CCOC(=O)/C=C/c1ccc(O)c(OC)c1` [0.1% ferulic acid-ethyl ester, ferulic acid ethyl ester], the “Antimicrobial effect, in words” value [6] is reported as “much weaker antimicrobial effect than ferulic acid itself”, the “Growth … 16404 after 24 hours” value [1, 8] is reported as “++++ (Massive growth About 10^5)” and the “Growth … 16404 after 72 hours” value [1, 8] is reported as “++++ (Massive growth About 10^5)”. The “Growth … 16404 after 168 hours” value [1, 8] was “++++ (Massive growth About 10^5)”, the “Growth … 16404 after 336 hours” value [1, 8] was “+++ (Heavy growth About 10^4)” and the “Growth … 16404 after 24 hours” value [1, 9] was “++ (Moderate growth About 10^3)”. For the same molecule, the “Growth … 16404 after 72 hours” value [1, 9] was “+++ (Heavy growth About 10^4)”, the “Growth … 16404 after 168 hours” value [1, 9] was “+++ (Heavy growth About 10^4)” and the “Growth … 16404 after 336 hours” value [1, 9] was “++++ (Massive growth About 10^5)”. For the same molecule, the “Growth of P. aeruginosa ATCC: 9027 after 24 hours” value [2] was “++++ (Massive growth About 10^5)”, the “Growth of P. aeruginosa ATCC: 9027 after 72 hours” value [2] was “++++ (Massive growth About 10^5)” and the “Growth of P. aeruginosa ATCC: 9027 after 168 hours” value [2] was “++++ (Massive growth About 10^5)”. For the same molecule, the “Growth of P. aeruginosa ATCC: 9027 after 336 hours” value [2] was “++++ (Massive growth About 10^5)”, the “Growth … 11229 after 24 hours” value [3] was “R (Surface covered About 10^6)” and the “Growth of E. coli ATCC: 11229 after 72 hours” value [3] was “R (Surface covered About 10^6)”. For the same molecule, the “Growth of E. coli ATCC: 11229 after 168 hours” value [3] was “++++ (Massive growth About 10^5)”, the “Growth of E. coli ATCC: 11229 after 336 hours” value [3] was “R (Surface covered About 10^6)” and the “Water solubility, in words” value [7] was “poor water solubility”. The “Growth … 10231 after 24 hours” value [4, 10] was “R (Surface covered About 10^6)”, the “Growth … 10231 after 72 hours” value [4, 10] was “R (Surface covered About 10^6)” and the “Growth … 10231 after 168 hours” value [4, 10] was “R (Surface covered About 10^6)”. For the same molecule, the “Growth … 10231 after 336 hours” value [4, 10] was “R (Surface covered About 10^6)”, the “Growth … 10231 after 24 hours” value [4, 11] was “++++ (Massive growth About 10^5)” and the “Growth … 10231 after 72 hours” value [4, 11] was “++++ (Massive growth About 10^5)”. For the same molecule, the “Growth … 10231 after 168 hours” value [4, 11] was “++++ (Massive growth About 10^5)”, the “Growth … 10231 after 336 hours” value [4, 11] was “++++ (Massive growth About 10^5)” and the “Growth … 6538 after 24 hours” value [5, 12] was “++++ (Massive growth About 10^5)”. For the same molecule, the “Growth … 6538 after 72 hours” value [5, 12] was “R (Surface covered About 10^6)”, the “Growth … 6538 after 168 hours” value [5, 12] was “R (Surface covered About 10^6)” and the “Growth … 6538 after 336 hours” value [5, 12] was “++++ (Massive growth About 10^5)”. For the same molecule, the “Growth … 6538 after 24 hours” value [5, 13] was “++++ (Massive growth About 10^5)”, the “Growth … 6538 after 72 hours” value [5, 13] was “++++ (Massive growth About 10^5)” and the “Growth … 6538 after 168 hours” value [5, 13] was “+++ (Heavy growth About 10^4)”. For the same molecule, the “Growth … 6538 after 336 hours” value [5, 13] was “+++ (Heavy growth About 10^4)”.

For `OCCCc1ccccc1` [0.75% 3-phenyl-propanol-1, 3-phenyl-1-propanol], the “Antimicrobial effect, in words” value [6] was “good anti-microbial effect”, the “Growth … 16404 after 24 hours” value [1, 8] was “++++ (Massive growth About 10^5)” and the “Growth … 16404 after 72 hours” value [1, 8] was “+++ (Heavy growth About 10^4)”. The “Growth … 16404 after 168 hours” value [1, 8] was “+ (Slight growth About 10^2)”, the “Growth … 11229 after 24 hours” value [3] was “++ (Moderate growth About 10^3)” and the “Growth … 10231 after 24 hours” value [4, 10] was “++++ (Massive growth About 10^5)”. For the same molecule, the “Growth … 10231 after 72 hours” value [4, 10] was “++++ (Massive growth About 10^5)”, the “Growth … 10231 after 168 hours” value [4, 10] was “+ (Slight growth About 10^2)” and the “Growth … 6538 after 24 hours” value [5, 12] was “++++ (Massive growth About 10^5)”. The “Growth … 6538 after 72 hours” value [5, 12] was “++++ (Massive growth About 10^5)” and the “Growth … 6538 after 168 hours” value [5, 12] was “+++ (Heavy growth About 10^4)”.
